Earlier results on 58 compounds are cited in the CATMoS acute toxicity set (Mansouri et al. 2021).

The LD50 is the dose at which mortality reaches 50%.

The data set in a line: rat acute oral toxicity. Particulars: in vivo.
Turning to `Cc1ncc2coc(OCCO)c2c1O`, the 50% lethal dose (LD50) is 2200 mg/kg.

Regarding `CCOc1ccc(F)cc1C(CN(C)C)C(C)CC` (stereo not drawn), the LD50 is 324 mg/kg.

Regarding `CO[Si](CCl)(OC)OC`, the LD50 is 500 mg/kg.

For `NC(=S)Nc1ccccc1`, the 50% lethal dose (LD50) was 3 mg/kg.

Consider `O=C(COc1ccc(Cl)cc1Cl)OCC=CCCl`, for which the LD50 is 547 mg/kg.

In the case of `CCC1(CCC(C)C)C(=O)NC(=O)NC1=O`, the LD50 is 250 mg/kg.

As to `CN(C)S(=O)(=O)CCCCCNC(=O)N(CCCl)N=O`, the LD50 was 250 mg/kg.

With `CCOc1ccc(/C=C2\NCCc3cc(OCC)c(OCC)cc32)cc1OCC`, the LD50 is 540 mg/kg.

In the case of `Cc1ccc2c(c1)[C@]13CCCC[C@@H]1[C@H](C2)N(C)CC3`, the LD50 is 690 mg/kg.

Turning to `NC(=O)c1cc(C(=O)CBr)ccc1O`, the LD50 is 800 mg/kg.

`O=C1NC(CCCl)Oc2ccccc21` (stereo not drawn): the LD50 was 10000 mg/kg.

With `CCN1CCC(=C2c3ccccc3CCc3ccccc32)C1C` (stereo not drawn), the LD50 was 600 mg/kg.

As to `O=C(OCCOC(=O)C(Cl)(Cl)Cl)C(Cl)(Cl)Cl`, the LD50 is 7000 mg/kg.

For the compound `COc1ccc2c(c1)c(CC(=O)Oc1ccccc1C(=O)O)c(C)n2C(=O)c1ccc(Cl)cc1`, the LD50 is 59.5 mg/kg.

For `COC1CC2CC1C1CC(C=O)CC21` (stereo not drawn), the LD50 is 2800 mg/kg.

With `C=CCSC(=S)SC(Cl)(Cl)Cl`, the LD50 is 2180 mg/kg.

Take `CCOC(=O)N1C(=O)NC(c2ccccc2)(c2ccccc2)C1=O`: the LD50 was 3500 mg/kg.

For the compound `CCOP(=S)(OCC)SCC(=O)NC(C)C`, the LD50 was 8 mg/kg.

As for `c1ccc([I+]c2ccccc2)cc1`, the LD50 is 60 mg/kg.

Consider `COc1ccccc1N1CCN(CC=Cc2ccc3c(c2)CCC(=O)N3)CC1`, for which the 50% lethal dose (LD50) was 500 mg/kg.

`C[N+](C)(C)CCCCCCCCCC[N+](C)(C)C`: the LD50 is 85 mg/kg.

As to `O=C(Cl)C(Br)CBr` (stereo not drawn), the LD50 is 1200 mg/kg.

Turning to `COc1ccc2c(c1)c(CC(=O)OCOC(=O)c1cccc(C)c1)c(C)n2C(=O)c1ccc(Cl)cc1`, the LD50 was 106 mg/kg.

With `CCCCCOC(=O)CCC`, the LD50 was 12200 mg/kg.

For the compound `CC(C)(COC(N)=O)COC(N)=O`, the LD50 was 2510 mg/kg.

For the compound `COc1cc2ccc(=O)oc2cc1O`, the LD50 was 3800 mg/kg.

Regarding `CC(C)(C(=O)c1cccnc1)c1cccnc1`, the LD50 was 521 mg/kg.

`CCCCOCC`: the LD50 is 1870 mg/kg.

For the compound `NC1CCCC(N)C1` (stereo not drawn), the median lethal dose (LD50) was 390 mg/kg.

`CC1COC(C(Cl)(Cl)Cl)O1` (stereo not drawn): the LD50 is 380 mg/kg.

In the case of `CCCCOC(=O)c1ccccc1Nc1cccc(C(F)(F)F)c1`, the median lethal dose (LD50) is 510 mg/kg.

Turning to `CCCCCCCCP(=O)(O)O`, the 50% lethal dose (LD50) is 1890 mg/kg.

Turning to `CCOP(=O)(OC=C(Cl)Cl)OCC`, the LD50 is 2.5 mg/kg.

In the case of `O=C(c1ccc2c(c1)C(=O)OC2=O)c1ccc2c(c1)C(=O)OC2=O`, the LD50 is 12800 mg/kg.

`CN1[C@@H]2CC[C@H]1C[C@@H](OC1c3ccccc3CCc3ccccc31)C2`: the LD50 was 445 mg/kg.

Consider `CCC1(CC)Oc2cccc(OC(=O)NC)c2O1`, for which the LD50 was 46 mg/kg.

Consider `Cc1ccc(N=C=O)cc1`, for which the LD50 is 1600 mg/kg.

Take `CO[C@H]1CC[C@H](O[C@@]2(C)[C@H](C[C@@H]3C[C@@H](OC)[C@@H](C)[C@]4(O3)O[C@](C)(C3CC[C@@H]([C@H]5CC[C@H](C6O[C@](C)(O)[C@H](C)C[C@@H]6C)O5)O3)[C@H](OC)[C@H]4C)O[C@](O)([C@@H](C)C(=O)O)[C@H](C)[C@@H]2OC)O[C@@H]1C` (stereo partly drawn): the LD50 is 10 mg/kg.

Consider `COc1ccc(NC(=O)CC(C)=O)cc1`, for which the LD50 was 1700 mg/kg.

On to `Cc1ncc(CO)c(C(=O)O)c1O`, for which the LD50 is 7500 mg/kg.

As for `O=[N+]([O-])c1cc(Cl)cc(-c2cc(Cl)cc([N+](=O)[O-])c2O)c1O`, the LD50 is 10 mg/kg.

Regarding `O=S(=O)(O)c1ccc(N=Nc2ccc(N=Nc3c(O)ccc4ccccc34)cc2)cc1`, the LD50 is 7740 mg/kg.

As for `CN1CCC(Oc2ccc(N)cc2)(c2ccccc2)CC1`, the LD50 was 410 mg/kg.

As for `CN1CCC(C=C2c3ccccc3CCc3ccccc32)C1` (stereo not drawn), the LD50 was 303 mg/kg.

For `CCCCCCCCCCCCOC(CBr)c1ccc(C(C)C)cc1` (stereo not drawn), the LD50 was 250 mg/kg.

Turning to `CC(C)(C)NC[C@H](O)COc1nsnc1N1CCOCC1`, the LD50 was 1030 mg/kg.

`Cc1occc(=O)c1O`: the LD50 was 1410 mg/kg.

For the compound `CCN1C(=O)c2ccccc2C1Nc1ccc(OCCN2CCCCC2)cc1` (stereo not drawn), the 50% lethal dose (LD50) is 695 mg/kg.

As for `C[N+](C)(C)CCOC(N)=O`, the LD50 is 40 mg/kg.

As to `CN1CCN(CCCCCCCCNC(=O)Oc2ccc3c(c2)C2(C)CCN(C)C2N3C)CC1` (stereo not drawn), the median lethal dose (LD50) is 27.7 mg/kg.

Consider `Cc1c(O)cccc1O`, for which the LD50 is 200 mg/kg.

`CCOP(=O)(OCC)C(SCC)(P(=O)(OCC)OCC)P(=O)(OCC)OCC`: the LD50 is 7.25 mg/kg.

Turning to `CCCCCCCCCCCC(=O)NP(=O)(OC)SC` (stereo not drawn), the LD50 is 100 mg/kg.

For the compound `COc1ccc(SC#N)c([N+](=O)[O-])c1`, the LD50 was 3540 mg/kg.

Regarding `CCS(=O)(=O)Oc1ccc2c(c1)C(C)(C)CO2`, the LD50 is 2030 mg/kg.

For the compound `CCCCCCCCCCCCCCCCOP(=O)([O-])OCC[N+](C)(C)C`, the LD50 was 246 mg/kg.

Regarding `O=COCCCc1ccccc1`, the LD50 was 4090 mg/kg.

For the compound `CC(CC(C)(C)O)OCCC#N` (stereo not drawn), the 50% lethal dose (LD50) was 3200 mg/kg.
